Test system: TNF-α
Test: LPS-induced TNF-α assay in human whole blood
Format: cell-based
Details: LPS 1 μg/mL, 24 hours at 37° C., TNF-α by ELISA in plasma
Method: Whole blood provides a protein and cell-rich milieu appropriate for the study of biochemical efficacy of anti-inflammatory compounds such as PDE4-selective inhibitors. […] Upon stimulation with LPS, activated monocytes express and secrete TNF-α up to 8 hours and plasma levels remain stable for 24 hours. Published studies have shown that inhibition of TNF-α by increasing intracellular cAMP via PDE4 inhibition and/or enhanced adenylyl cyclase activity Occurs at the transcriptional level. […] As there is little LTB4 produced during a 24 hour LPS stimulation of whole blood, an additional LPS stimulation followed by fMLP challenge of human whole blood is necessary for LTB4 synthesis by activated neutrophils. Thus, by using the same blood sample, it is possible to evaluate the potency of a compound on two surrogate markers of PDE4 activity in the whole blood by the following procedure.
Fresh blood was collected in heparinized tubes by venipuncture from healthy human volunteers (male and female). These subjects had no apparent inflammatory conditions and had not taken any NSAIDs for at least 4 days prior to blood collection. 500 μL aliquots of blood were pre-incubated with either 2 μL of vehicle (DMSO) or 2 μL of test compound at varying concentrations for 15 minutes at 37° C. This was followed by the addition of either 10 μL vehicle (PBS) as blanks or 10 μL LPS (1 μg/mL final concentration, #L-2630 (Sigma Chemical Co., St. Louis, Mo.) from E. coli, serotype 0111:B4; diluted in 0.1% w/v BSA (in PBS)). After 24 hours of incubation at 37° C., another 10 μL of PBS (blank) or 10 μL of LPS (1 μg/mL final concentration) was added to blood and incubated for 30 minutes at 37° C. The blood was then challenged with either 10 μL of PBS (blank) or 10 μL of fMLP (1 μM final concentration, #F-3506 (Sigma); diluted in 1% w/v BSA (in PBS)) for 15 minutes at 37° C. The blood samples were centrifuged at 1500×g for 10 minutes at 4° C. to obtain plasma. A 50 μL aliquot of plasma was mixed with 200 μL methanol for protein precipitation and centrifuged as above. The supernatant was assayed for LTB4 using an enzyme immunoassay kit (#520111 from Cayman Chemical Co., Ann Arbor, Mich.) according to the manufacturer's procedure. TNF-α was assayed in diluted plasma (in PBS) using an ELISA kit (Cistron Biotechnology, Pine Brook, N.J.) according to manufacturer's procedure.

Compared with O=C(NC1CC1)c1cn(-c2cccc(-c3ccc(CC4(C(=O)O)CCC4)cc3)c2)c2ncccc2c1=O [Example 30, 1-({3′-[3-[(cyclopropylamino)carbonyl]-4-oxo-1,8-naphthyridin-1(4H)-yl]biphenyl-4-yl}methyl)cyclobutanecarboxylic acid], O=C(NC1CC1)c1cn(-c2cccc(-c3ccc([C@@H]4C[C@H]4C(=O)O)cc3)c2)c2ncccc2c1=O (relative stereo) [Example 1, 2-(trans)-{3′-[3-[(Cyclopropylamino)carbonyl]-4-oxo-1,8-naphthyridin-1(4H)-yl]-1,1′-biphenyl-4-yl}cyclopropanecarboxylic acid] is 6-fold lower in IC50: 1800 nM for the first, 300 nM for the second. The second is the more potent here.

First: O=C(NC1CC1)c1cn(-c2cccc(-c3ccc(C4CC4C(=O)O)c(F)c3)c2)c2ncccc2c1=O (single isomer, unassigned; (-)) [12-(−)-isomer, (−)-(trans)-2-{3′-[3-[(cyclopropylamino)carbonyl]-4-oxo-1,8-naphthyridin-1(4H)-yl]-3-fluoro-1,1′-biphenyl-4-yl}cyclopropanecarboxylic acid]
Second: O=C(NC1CC1)c1cn(-c2cccc(-c3ccc(C4CC4C(=O)O)c(Cl)c3)c2)c2ncccc2c1=O (stereo not shown) [Example 17, 2-{3-Chloro-3′-[3-[(cyclopropylamino)carbonyl]-4-oxo-1,8-naphthyridin-1(4H)-yl]1,1′-biphenyl-4-yl}cyclopropanecarboxylic acid]
The IC50 of the first is 5.6-fold higher: 500 nM for the first, 90 nM for the second.

First: O=C(NC1CC1)c1cn(-c2cccc(-c3cccc(C4CC4C(=O)O)c3)c2)c2ncccc2c1=O (stereo not shown) [Example 2, 2-{3′-[3-[(Cyclopropylamino)carbonyl]-4-oxo-1,8-naphthyridin-1(4H)-yl]-1,1′-biphenyl-3-yl}cyclopropanecarboxylic acid]
Second: O=C(NC1CC1)c1cn(-c2cccc(-c3ccc([C@H]4C[C@H]4C(=O)O)cc3)c2)c2ncccc2c1=O (single isomer, unassigned; isomer 2) [8-(−)-isomer, 2-(cis)-{3′-[3-[(Cyclopropylamino)carbonyl]-4-oxo-1,8-naphthyridin-1(4H)-yl]-1,1′-biphenyl-4-yl}cyclopropanecarboxylic acid]
The IC50 of the first is 1.6-fold lower: 100 nM for the first, 160 nM for the second. The first is the more potent here.

O=C(NCC1CC1)c1cn(-c2cccc(-c3ccc(C4CC4C(=O)O)cc3)c2)c2ncccc2c1=O (stereo not shown) [Example 26, 2-{3′-[3-{[(Cyclopropylmethyl)amino]carbonyl}-4-oxo-1,8-naphthyridin-1(4H)-yl]-1,1′-biphenyl-4-yl}cyclopropanecarboxylic acid] and O=C(NCC(F)(F)F)c1cn(-c2cccc(-c3ccc([C@@H]4C[C@H]4C(=O)O)cc3)c2)c2ncccc2c1=O (single isomer, unassigned; (+)) [24-(+)-isomer, (+)-(trans)-2-{3′-[4-oxo-3-{[(2,2,2-trifluoroethyl)amino]carbonyl}-1,8-naphthyridin-1(4H)-yl]biphenyl-4-yl}cyclopropanecarboxylic acid] are the same in IC50: 160 nM for the first, 160 nM for the second.

CC(C)(CC(=O)O)c1ccc(-c2cccc(-n3cc(C(=O)NC4CC4)c(=O)c4cccnc43)c2)cc1 [Example 5, 3-{3′-[3-[(Cyclopropylamino)carbonyl]-4-oxo-1,8-naphthyridin-1(4H)-yl]-1,1′-biphenyl-4-yl}-3-methylbutanoic acid] and O=C(NCC(F)(F)F)c1cn(-c2cccc(-c3ccc(C4CC4C(=O)O)c(F)c3)c2)c2ncccc2c1=O (single isomer, unassigned; (+)) [Example 29, (+)-(trans)-2-{3-fluoro-3′-[4-oxo-3-{[(2,2,2-trifluoroethyl)amino]carbonyl}-1,8-naphthyridin-1(4H)-yl]biphenyl-4-yl}cyclopropanecarboxylic acid] are within 1.5-fold of each other in IC50: 75 nM for the first, 100 nM for the second.

Reference: patent publication US7238706B2, “4-oxo-1-(3-substituted phenyl-1,4-dihydro-1,8-naphthyridine-3-carboxamide phosphodiesterase-4 inhibitors” (Merck Frosst Canada, Ltd., priority 2002, dated 2007)
